Where “and” joins values, the source holds several entries; their conditions need not be identical. Equal values may be shown once. Read-outs that look alike come from different tables or passages of the source. Square brackets hold non-standard residues; d marks the D form. Ends that are not written are not given here. βAla = NCCC(=O)O

One may read the Kd as the free concentration of one partner at which half of the binding sites on the other are occupied at equilibrium, for simple one-to-one binding.

Experiment [1] in a line: Surface plasmon resonance on LMWH-modified streptavidin chip. The format is binding. How it is done: (§1) Heparin-sepharose affinity liquid chromatography was performed on an ÄKTA Explorer FPLC equipped with a HiTrap Heparin HP column (5 ml, ˜10 mg heparin/ml gel, Amersham Biosciences Corp, Piscataway, N.J.). Surface Plasmon Resonance (SPR). SPR sensorgrams were recorded on a BiaCore 3000 instrument (Biacore Inc, Piscataway, N.J.), employing a high-capacity LMWH surface created on a commercially available streptavidin-coated chip via treatment with biotinylated LMWH.
In SPR experiments, the interaction of the peptides with a LMWH-modified SA chip surface was determined under conditions described in the experimental section. […] In addition, no mass transport limitation or linked reactions were indicated. […] These faster association kinetics, relative to those reported for the ATIII and HIP (Table 2) (see also N. Yamaguchi, B. S. Chae, L. Zhang, K. L. Kiick, E. M. Furst, Rheological characterization of polysaccharide-poly (ethylene glycol) star copolymer hydrogels, Biomacromolecules 6 (4) (2005) 1931-1940) are the primary cause of the lower measured KD values for PF4ZIP-LMWH binding, and the trend of the dissociation constants is consistent with the chromatography results. […] Nevertheless, the equilibrium constants of dissociation determined via both methods are substantially lower than the concentrations employed during hydrogel formation experiments (see below).
The heparin-binding kinetics between LMWH and PF4ZIP were monitored via SPR at several temperatures between 5° C. and 37° C., to determine potential changes in binding kinetics that might alter hydrogel properties under physiological conditions.

A short description of experiment [2]: Heparin-sepharose affinity chromatography (NaCl elution). The format is binding. The following applies: 25° C. On the procedure:
as §1
For heparin affinity chromatography experiments, HBPs were loaded onto a heparin-sepharose column, and then eluted with buffer of increasing NaCl concentration. The concentration of NaCl required for peptide elution is used as an indication of the affinity of the peptide for heparin. The elution of the peptides from the heparin-sepharose column required a salt concentration of 962±10 mM for the PF4ZIP peptide.

For experiment [3] the following is noted: 25° C.; previously reported studies; cited from earlier work.
The conditions of experiment [4]: NaCl; 25° C.; previously reported studies; cited from earlier work.

With “CGGRMKQLEDKVKKLLKKNYHLENEVARLKKLVG [PF4ZIP]”, the ka in experiment [1] (5 ° C.) is 1.56 ± 0.01 × 10^5 M^−1s^−1; in experiment [1] (15 ° C.), 1.90 ± 0.04 × 10^5 M^−1s^−1; in experiment [1] (25° C.) it was 2.24±0.05×10^5 M^−1s^−1; in experiment [1] (25 ° C. (Table 3)) it was 2.24 ± 0.05 × 10^5 M^−1s^−1; in experiment [1] (37 ° C.), 5.11 ± 0.02 × 10^5 M^−1s^−1. The kd in experiment [1] (5 ° C.) is given as 3.74 ± 0.17 × 10^−3 s^−1; in experiment [1] (15 ° C.), 1.67 ± 0.03 × 10^−3 s^−1; in experiment [1] (25° C.), 2.56±0.10×10^−3 s^−1; in experiment [1] (25 ° C. (Table 3)) it was 2.56 ± 0.10 × 10^−3 s^−1; in experiment [1] (37 ° C.), 2.44 ± 0.08 × 10^−3 s^−1. Moreover, the Kd in experiment [1] (25° C.) was ~11.5 nM and 11.5 nM. Moreover, in experiment [2], the “Salt required for elution from heparin column” value (“Salt required for elution” for short) worked out at 962 ± 10 mM.

In the case of “CKbAFAKLAARLYRKA (CK[βAla]FAKLAARLYRKA-NH2; N-terminus assumed; SMILES CC(C)C[C@H](NC(=O)[C@H](CCCCN)NC(=O)[C@H](C)NC(=O)[C@H](Cc1ccccc1)NC(=O)CCNC(=O)[C@H](CCCCN)NC(=O)[C@@H](N)CS)C(=O)N[C@@H](C)C(=O)N[C@@H](C)C(=O)N[C@@H](CCCNC(=N)N)C(=O)N[C@@H](CC(C)C)C(=O)N[C@@H](Cc1ccc(O)cc1)C(=O)N[C@@H](CCCNC(=N)N)C(=O)N[C@@H](CCCCN)C(=O)N[C@@H](C)C(N)=O; listed as Homo sapiens) [ATIII]”, in experiment [3], the Kd is 12900 ± 1300 nM, the ka is reported as 1.56 ± 0.06 × 10^2 M^−1s^−1 and the kd is 2.00 ± 0.3 × 10^−3 s^−1. Moreover, the “Salt required for elution” value in experiment [4] is 594 ± 2 mM.

Regarding CRPKAKAKAKAKDQTK [HIP], in experiment [3], the Kd is 4200 ± 300 nM, the ka is 1.10 ± 0.08 × 10^3 M^−1s^−1 and the kd is 4.64 ± 0.02 × 10^−3 s^−1. The “Salt required for elution” value in experiment [4] is 687 ± 1 mM.
